According to EP2608671B1, “COMPOUNDS FOR TREATMENT OF CANCER” (Gtx, Inc., priority 2010, dated 2012):
Where two headings read alike, the source gives them in different places.

Legend:
[1] = tested on: LNCaP; experiment: cells; conditions: Homo sapiens, 96 h, read-out: IC50 ± SEM (nM), LNCaP
[2] = tested on: DU 145; experiment: cells; conditions: Homo sapiens, DU-145, 96 h
[3] = tested on: B16-F1; experiment: SRB cell growth inhibition (cytotoxicity) assay; type: cell-based, mouse
Excerpt: (§1) The only compounds which belong to the invention are the ones falling under the scope of formula (XI).

[4] = tested on: PPC-1; experiment: cells; conditions: Homo sapiens, PPC-1, 96 h, read-out: IC50 ± SEM (nM), PPC-1
[5] = tested on: A375; experiment: SRB cell growth inhibition (cytotoxicity) assay; type: cell-based, human
[6] = tested on: PC-3; experiment: cells; conditions: Homo sapiens, PC-3, 96 h, read-out: IC50 ± SEM (nM), PC-3
Excerpt: as §1
Cells were stained with SRB solution.
Cells. […] Cells between the third and fifth passages were used for experiments.
Cell growth inhibition studies. […] Cells were stained with sulphorhodamine B (SRB) solution.

[7] = tested on: WM-164; experiment: SRB cell growth inhibition (cytotoxicity) assay; type: cell-based, human; conditions: Homo sapiens
[8] = read-out: IC50 ± SEM (nM), DU 145
[9] = Mus musculus, B16-F1; read-out: IC50 ± SEM (nM), B16-F1
[10] = Homo sapiens, A-375, 96 h; read-out: IC50 ± SEM (nM), A375
[11] = WM164, SRB assay, 96 h, Table 2, read-out: IC50 ± SEM (nM), WM-164
[12] = read-out: IC50 ± SEM (nM) Du 145
[13] = Mus musculus; B16-F1 melanoma cells, 48 h, SRB; read-out: IC50 ± SEM (nM) B16-F1
[14] = Homo sapiens, A-375; A375 melanoma cells, 48 h, SRB; read-out: IC50 ± SEM (nM) A375
[15] = WM164 melanoma cells, 48 h, SRB, read-out: IC50 ± SEM (nM) WM164
[16] = Mus musculus, B16-F1, read-out: IC50 ± SEM (nM), B16-F1
[17] = Homo sapiens, A-375, 96 h, read-out: IC50 ± SEM (nM), A375

Compound	IC50 [1]	IC50 [2, 8]	IC50 [3, 9]	IC50 [4]	IC50 [5, 10]	IC50 [6]	IC50 [7, 11]	IC50 [2, 12]	IC50 [3, 13]	IC50 [5, 14]	IC50 [7, 15]	IC50 [3, 16]	IC50 [5, 17]	IC50 ([3]; Mus musculus, B16-F1, read-out: IC50 ± SEM (nM) (n=3), B16-F1; Table 14A)	IC50 ([5]; Homo sapiens, A-375, read-out: IC50 ± SEM (nM) (n=3), A375; Table 14A)	IC50 ([7]; WM164, read-out: IC50 ± SEM (nM) (n=3), WM-164, Table 14A)
COc1cc([S+]([O-])c2cccc(-c3ccccc3)c2)cc(OC)c1OC (stereo not drawn) [4c, 3-(3,4,5-Trimethoxyphenylsulfinyl)biphenyl]	> 10000 nM	> 10000 nM	> 10000 nM	> 10000 nM	> 10000 nM	> 10000 nM	> 10000 nM									
COc1cc(NS(=O)(=O)c2cccc(-c3ccccc3)c2)cc(OC)c1OC [4d, N-(3,4,5-Trimethoxyphenyl)biphenyl-3-sulfonamide]	> 10000 nM	> 10000 nM	> 10000 nM	> 10000 nM	> 10000 nM	> 10000 nM	> 10000 nM									
COc1ccc(C(=O)c2cn(S(=O)(=O)c3ccccc3)c(-c3ccccc3)n2)cc1 [11ab, (4-methoxyphenyl)(2-phenyl-1-(phenylsulfonyl)-1H-imidazol-4-yl)methanone]	> 10000 nM			> 10000 nM		> 10000 nM		> 10000 nM	> 10000 nM	> 10000 nM	> 10000 nM					
COc1cccc(C(=O)c2cn(S(=O)(=O)c3ccccc3)c(-c3ccccc3)n2)c1 [11ac, (3-methoxyphenyl)(2-phenyl-1-(phenylsulfonyl)-1H-imidazol-4-yl)methanone]	> 10000 nM			> 10000 nM		> 10000 nM		> 10000 nM	> 10000 nM	> 10000 nM	> 10000 nM					
O=C(c1ccc(F)cc1)c1cn(S(=O)(=O)c2ccccc2)c(-c2ccccc2)n1 [11af, (4-fluorophenyl)(2-phenyl-1-(phenylsulfonyl)-1H-imidazol-4-yl)methanone]	573 nM			575 nM		2230 nM		846 nM	946 ± 86 nM	630 ± 72 nM	596 ± 61 nM					
Cc1ccc(C(=O)c2cn(S(=O)(=O)c3ccccc3)c(-c3ccccc3)n2)cc1 [11ah, (2-phenyl-1-(phenylsulfonyl)-1H-imidazol-4-yl)(p-tolyl)methanone]	> 10000 nM			> 10000 nM		> 10000 nM		> 10000 nM	> 10000 nM	> 10000 nM	> 10000 nM					
O=C(c1cc(O)c(O)c(O)c1)c1c[nH]c(-c2ccc(O)c(O)c2)n1 [13ha, (2-(3,4-dihydroxyphenyl)-1H-imidazol-4-yl)(3,4,5-trihydroxyphenyl)methanone]									> 10000 nM	> 10000 nM	> 10000 nM					
COc1cc(C(=O)[C@@H]2CSC(c3ccc(O[Si](C)(C)C(C)(C)C)cc3)=N2)cc(OC)c1OC [58a, (R)-(2-(4-(tert-Butyldimethylsilyloxy)phenyl)-4,5-dihydrothiazol-4-yl)(3,4,5-trimethoxyphenyl)methanone]	549 nM	434 ± 30 nM		246 ± 8 nM		183 ± 24 nM						500 ± 200 nM	700 ± 300 nM			
COc1cc(C(=O)c2csc(-c3cc4ccccc4[nH]3)n2)cc(OC)c1OC [62a, (2-(1H-indol-2-yl)thiazol-4-yl)(3,4,5-trimethoxyphenyl)methanone]	28 nM	32 nM		28 nM		24 nM						43 ± 21 nM	19 ± 9 nM			
COc1cc(C(=O)c2csc(-c3ccc(CNC(=O)OC(C)(C)C)cc3)n2)cc(OC)c1OC [68a, tert-Butyl 4-(4-(3,4,5-trimethoxybenzoyl)thiazol-2-yl)benzylcarbamate]	2600 nM	4400 nM	2900 ± 400 nM	2700 nM	7900 ± 500 nM	3100 nM										
CC(C)C[C@H](NC(=O)[C@H](Cc1ccccc1)NC(=O)c1cnccn1)B(O)O [Bortezomib, reference compound]														24 ± 2 nM	8 ± 1 nM	8 ± 1 nM
